In the assay the target is T1, trypsin-activated recombinant human renin (Homo sapiens, UniProt P00797).
T1 sequence (P00797 67-406): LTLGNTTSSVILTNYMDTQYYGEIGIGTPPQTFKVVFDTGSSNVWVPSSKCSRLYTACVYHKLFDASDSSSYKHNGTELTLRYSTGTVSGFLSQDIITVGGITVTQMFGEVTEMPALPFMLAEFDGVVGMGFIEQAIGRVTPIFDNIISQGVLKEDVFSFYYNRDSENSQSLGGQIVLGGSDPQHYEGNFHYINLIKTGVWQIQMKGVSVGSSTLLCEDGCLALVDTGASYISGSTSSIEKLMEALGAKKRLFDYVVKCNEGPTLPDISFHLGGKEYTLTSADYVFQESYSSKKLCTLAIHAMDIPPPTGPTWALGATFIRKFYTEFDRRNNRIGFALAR
Briefly: Renin fluorescence assay (internally quenched peptide substrate). The assay is classed as biochemical. Conditions: compounds I*. The gist of the method:
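Cleavage of an angiotensinogen-derived DABCYL-quenched peptide by trypsin-activated recombinant human renin (0.2-2 nM final) in 50 mM BES, 150 mM NaCl, 0.25 mg/mL BSA, pH 7.0; compounds 10 μM to 1 nM final. Fluorescence (ex 340/em 495 nm) followed 60-360 min at rt; linear-slope rates give percent inhibition versus uninhibited control.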

As for `CNC[C@H](CC1CCCCC1)NC(=O)N1CCC[C@@H]([C@@](C)(OCC(=O)NC)c2cccc(Cl)c2)C1` [I*-25a, (R)-3-((R)-1-(3-chlorophenyl)-1-(2-(methylamino)-2-oxoethoxy)ethyl)-N—((S)-1-cyclohexyl-3-(methylamino)propan-2-yl)piperidine-1-carboxamide], the half-maximal inhibitory concentration (IC50) was greater than 0.05 µM.

As to `CNC[C@H](CC1CCCCC1)NC(=O)N1CCC[C@@H]([C@@H](OCCNC(=O)OC)c2cccc(C)c2)C1` [I*-18a, methyl 2-((R)-((R)-1-((S)-1-cyclohexyl-3-(methylamino)propan-2-ylcarbamoyl)piperidin-3-yl)(m-tolyl)methoxy)ethylcarbamate], the concentration for half-maximal inhibition (IC50) is less than 0.001 µM.

Take `CNC[C@H](CC1CCOCC1)NC(=O)N1CCC[C@@H]([C@@](C)(OCCNC(=O)OC)c2cccc(Cl)c2)C1` [I*-103a, methyl 2-((R)-1-(3-chlorophenyl)-1-((R)-1-((S)-1-(methylamino)-3-(tetrahydro-2H-pyran-4-yl)propan-2-ylcarbamoyl)piperidin-3-yl)ethoxy)ethylcarbamate]: the IC50 is less than 0.02 µM.

Regarding `CCNC(=O)CO[C@@H](c1cccc(Cl)c1)[C@@H]1CCCN(C(=O)N[C@H](CNC)C[C@H]2CCCOC2)C1` [I*-30a, (R)-3-((R)-(3-chlorophenyl)(2-(ethylamino)-2-oxoethoxy)methyl)-N—((S)-1-(methylamino)-3-((R)-tetrahydro-2H-pyran-3-yl)propan-2-yl)piperidine-1-carboxamide], the IC50 is less than 0.02 µM.

For the compound `CNC[C@H](C[C@H]1CCC(=O)N(C)C1)NC(=O)N1CCC[C@@H]([C@@H](OCCNC(=O)OC)c2cccc(Cl)c2)C1` [I*-131a, methyl 2-((R)-(3-chlorophenyl)((R)-1-((S)-1-((R)-1-methyl-6-oxopiperidin-3-yl)-3-(methylamino)propan-2-ylcarbamoyl)piperidin-3-yl)methoxy)ethylcarbamate], the IC50 was greater than 0.05 µM.

In the case of `CNC[C@H](CC1CCCCC1)NC(=O)N1CCC[C@@H]([C@@H](OCCNC(=O)OC)c2cc(F)cc(F)c2O)C1` [I*-114a, methyl 2-((R)—((R)-1-((S)-1-cyclohexyl-3-(methylamino)propan-2-ylcarbamoyl)piperidin-3-yl)(3,5-difluoro-2-hydroxyphenyl)methoxy)ethylcarbamate], the 50% inhibitory concentration (IC50) is less than 0.01 µM.

`CNC[C@H](C[C@H]1CCC(C)(C)OC1)NC(=O)N1CCC[C@@H]([C@@H](OCCNC(=O)OC)c2cccc(Cl)c2)C1` [I*-157a, methyl 2-((R)-(3-chlorophenyl)((R)-1-((S)-1-((R)-6,6-dimethyl-tetrahydro-2H-pyran-3-yl)-3-(methylamino)propan-2-ylcarbamoyl)piperidin-3-yl)methoxy)ethylcarbamate]: the IC50 was less than 0.01 µM.

Turning to `CNC[C@@H](NC(=O)N1CCC[C@@H]([C@@H](OCCNC(=O)OC)c2cc(F)cc(F)c2)C1)[C@@H](O)C1CCCCC1` [I*-112a, methyl 2-((R)-((R)-1-((1S,2R)-1-cyclohexyl-1-hydroxy-3-(methylamino)propan-2-ylcarbamoyl)piperidin-3-yl)(3,5-difluorophenyl)methoxy)ethylcarbamate], the concentration for half-maximal inhibition (IC50) was less than 0.001 µM.

As for `CNC[C@H](C[C@@H]1CCCOCC1)NC(=O)N1CCC[C@@H]([C@@H](OCCNC(=O)OC)c2cccc(Cl)c2)C1` [I*-99a, methyl 2-((R)-(3-chlorophenyl)((R)-1-((S)-1-(methylamino)-3-((S)-oxepan-4-yl)propan-2-ylcarbamoyl)piperidin-3-yl)methoxy)ethylcarbamate], the concentration for half-maximal inhibition (IC50) was less than 0.01 µM.

Turning to `CNCC(C[C@@H]1C[C@@H](F)[C@@H](F)C1)NC(=O)N1CCC[C@@H]([C@@H](OCCNC(=O)OC)c2cccc(Cl)c2)C1` (stereo partly drawn) [I*-125a, methyl 2-((R)-(3-chlorophenyl)((R)-1-((S)-1-((1s,3R,4S)-3,4-difluorocyclopentyl)-3-(methylamino)propan-2-ylcarbamoyl)piperidin-3-yl)methoxy)ethylcarbamate], the half-inhibitory concentration (IC50) is less than 0.01 µM.

For `CNC[C@H](CN1CCCCC1=O)NC(=O)N1CCC[C@@H]([C@@H](OCCNC(=O)OC)c2cccc(F)c2)C1` [I*-46a, methyl 2-((R)-(3-fluorophenyl)((R)-1-((R)-1-(methylamino)-3-(2-oxopiperidin-1-yl)propan-2-ylcarbamoyl)piperidin-3-yl)methoxy)ethylcarbamate], the IC50 is greater than 0.05 µM.

`CNC[C@H](C[C@H]1CCCCOC1)NC(=O)N1CCC[C@@H]([C@@H](OCCNC(=O)OC)c2ccccc2F)C1` [I*-57a, methyl 2-((1R)-(2-fluorophenyl)((3R)-1-(1-(methylamino)-3-((R)-oxepan-3-yl)propan-2-ylcarbamoyl)piperidin-3-yl)methoxy)ethylcarbamate]: the half-maximal inhibitory concentration (IC50) is less than 0.01 µM.

Turning to `CNCC(CC12CCC(CC1)CC2)NC(=O)N1CCC[C@@H]([C@@H](OCCNC(=O)OC)c2cccc(Cl)c2)C1` (stereo partly drawn) [I*-129a, methyl 2-((R)-((3R)-1-(1-(bicyclo[2.2.2]octan-1-yl)-3-(methylamino)propan-2-ylcarbamoyl)piperidin-3-yl)(3-chlorophenyl)methoxy)ethylcarbamate], the half-maximal inhibitory concentration (IC50) is greater than 0.05 µM.

As for `CNC[C@H](CC12CC3CC(CC1C3)C2)NC(=O)N1CCC[C@@H]([C@@H](OCCNC(=O)OC)c2cccc(F)c2)C1` [I*-123a, methyl 2-((R)-((3R)-1-((S)-1-(3-noradamantyl)-3-(methylamino)propan-2-ylcarbamoyl)piperidin-3-yl)(3-fluorophenyl)methoxy)ethylcarbamate], the IC50 was less than 0.01 µM.

As for `CNC[C@H](CC1CCCCC1)NC(=O)N1CCC[C@@H]([C@@H](OCCNC(=O)OC)c2cccc(C(F)(F)F)c2)C1` [I*-136a, methyl 2-((R)-((R)-1-((S)-1-cyclohexyl-3-(methylamino)propan-2-ylcarbamoyl)piperidin-3-yl)(3-(trifluoromethyl)phenyl)methoxy)ethylcarbamate], the IC50 is less than 0.01 µM.

In the case of `COC(=O)NCCO[C@@H](c1cc(F)cc(Cl)c1)[C@@H]1CCCN(C(=O)NC[C@@H](N)C[C@H]2CCCCOC2)C1` [I*-122a, methyl 2-((R)-((R)-1-((S)-2-amino-3-((R)-oxepan-3-yl)propylcarbamoyl)piperidin-3-yl)(3-chloro-5-fluorophenyl)methoxy)ethylcarbamate], the IC50 is less than 0.01 µM.

Take `CNC[C@H](C[C@H]1CCC(C)(C)OC1)NC(=O)N1CCC[C@@H]([C@@H](OCCNC(=O)OC)c2cccc(F)c2)C1` [I*-154a, methyl 2-((R)-(3-fluorophenyl)((R)-1-((S)-1-((R)-6,6-dimethyl-tetrahydro-2H-pyran-3-yl)-3-(methylamino)propan-2-ylcarbamoyl)piperidin-3-yl)methoxy)ethylcarbamate]: the IC50 is less than 0.02 µM.

In the case of `CNC[C@@H](NC(=O)N1CCC[C@@H]([C@@H](OCCNC(=O)OC)c2cccc(F)c2)C1)[C@@H](O)C1CCCC1` [I*-27a, methyl 2-((R)-((R)-1-((1S,2R)-1-cyclopentyl-1-hydroxy-3-(methylamino)propan-2-ylcarbamoyl)piperidin-3-yl)(3-fluorophenyl)methoxy)ethylcarbamate], the 50% inhibitory concentration (IC50) is less than 0.01 µM.

Consider `CNC[C@H](CC1CCOCC1)NC(=O)N1CCC[C@@H]([C@@H](OCCNC(=O)OC)c2cc(F)ccc2F)C1` [I*-69a, methyl 2-((R)-(2,5-difluorophenyl)((R)-1-((S)-1-(methylamino)-3-(tetrahydro-2H-pyran-4-yl)propan-2-ylcarbamoyl)piperidin-3-yl)methoxy)ethylcarbamate], for which the IC50 was less than 0.05 µM.

As for `CNC[C@H](CC12CC3CC(CC1C3)C2)NC(=O)N1CCC[C@@H]([C@@H](OCCNC(=O)OC)c2ccccc2)C1` [I*-74a, methyl 2-((R)-((3R)-1-((S)-1-(3-noradamantyl)-3-(methylamino)propan-2-ylcarbamoyl)piperidin-3-yl)(phenyl)methoxy)ethylcarbamate], the half-maximal inhibitory concentration (IC50) is less than 0.02 µM.

As to `CNC[C@H](CC1(C)CCCCC1)NC(=O)N1CCC[C@@H]([C@@H](OCCNC(=O)OC)c2cccc(F)c2)C1` [I*-43a, methyl 2-((R)-(3-fluorophenyl)((R)-1-((S)-1-(methylamino)-3-(1-methylcyclohexyl)propan-2-ylcarbamoyl)piperidin-3-yl)methoxy)ethylcarbamate], the half-maximal inhibitory concentration (IC50) is less than 0.01 µM.

On to `CNC[C@H](C[C@H]1C[C@@H](C)O[C@@H](C)C1)NC(=O)N1CCC[C@@H]([C@@H](OCCNC(=O)OC)c2cccc(F)c2)C1` [I*-77a, methyl 2-((R)-((R)-1-((S)-1-((2S,4r,6R)-2,6-dimethyl-tetrahydro-2H-pyran-4-yl)-3-(methylamino)propan-2-ylcarbamoyl)piperidin-3-yl)(3-fluorophenyl)methoxy)ethylcarbamate], for which the IC50 is greater than 0.05 µM.

Consider `CNC[C@H](CC1CCOCC1)NC(=O)N1CCC[C@@H]([C@H](OCCNC(=O)OC)c2cccs2)C1` [I*-16a, methyl 2-((S)-((R)-1-((S)-1-(methylamino)-3-(tetrahydro-2H-pyran-4-yl)propan-2-ylcarbamoyl)piperidin-3-yl)(thiophen-2-yl)methoxy)ethylcarbamate], for which the half-maximal inhibitory concentration (IC50) was greater than 0.05 µM.

Take `CNC[C@H](CC1CCC(F)(F)CC1)NC(=O)N1CCC[C@@H]([C@@H](OCCNC(=O)OC)c2cc(F)cc(F)c2)C1` [I*-147a, methyl 2-((R)-((R)-1-((S)-1-(4,4-difluorocyclohexyl)-3-(methylamino)propan-2-ylcarbamoyl)piperidin-3-yl)(3,5-difluorophenyl)methoxy)ethylcarbamate]: the IC50 was less than 0.001 µM.

The values are drawn from patent US8487108B2, “Piperidinyl carbamate intermediates for the synthesis of aspartic protease inhibitors” (Vitae Pharmaceuticals, Inc., priority 2005, dated 2013).
